Tested on: Purified human neutrophils
Experiment: Lucigenin dependent chemiluminescence assay (neutrophil respiratory burst / priming for F-met-leu-phe response)
Type: cell-based
Details: fMLP alone
Procedure: Purified human neutrophils were pretreated with peptide for 20 minutes before the addition of f-met-leu-phe. The lucigenin dependent chemiluminescence response, which reflects superoxide production, was then measured. The results obtained are set out in Table 2 and are expressed as mV of lucigenin dependent chemiluminescence and represent the maximal cell activity attained.
This experiment was repeated with peptides 304, 308 and 309.
The experiment was also conducted using peptides 393, 394, 395 and 396. […]
Results are expressed as mV of lucigenin dependent chemiluminescence and respresent peak of response i.e. the maximal cell activity attained.

## CSCC[C@H](NC=O)C(=O)N[C@@H](CC(C)C)C(=O)N[C@@H](Cc1ccccc1)C(=O)O [fMLP, N-formyl-L-methionyl-L-leucyl-L-phenylalanine]
Exp. 1
  Chemiluminescence: 1.53 mV
Exp. 2
  Chemiluminescence: 3.53 mV
Exp. 3
  Chemiluminescence: 1.96 mV
